Results published in patent US11613517B2, “Amide prodrugs of small molecule nuclear receptor modulators” (OREGON HEALTH & SCIENCE UNIVERSITY, priority 2018, dated 2023).

Target: T1, FAAH (Mus musculus, UniProt O08914)
T1 construct: from tissue; host or cells: live wild type male C57Bl/6 mice (in vivo; brain and serum analysed)
T1 sequence (O08914 1-579): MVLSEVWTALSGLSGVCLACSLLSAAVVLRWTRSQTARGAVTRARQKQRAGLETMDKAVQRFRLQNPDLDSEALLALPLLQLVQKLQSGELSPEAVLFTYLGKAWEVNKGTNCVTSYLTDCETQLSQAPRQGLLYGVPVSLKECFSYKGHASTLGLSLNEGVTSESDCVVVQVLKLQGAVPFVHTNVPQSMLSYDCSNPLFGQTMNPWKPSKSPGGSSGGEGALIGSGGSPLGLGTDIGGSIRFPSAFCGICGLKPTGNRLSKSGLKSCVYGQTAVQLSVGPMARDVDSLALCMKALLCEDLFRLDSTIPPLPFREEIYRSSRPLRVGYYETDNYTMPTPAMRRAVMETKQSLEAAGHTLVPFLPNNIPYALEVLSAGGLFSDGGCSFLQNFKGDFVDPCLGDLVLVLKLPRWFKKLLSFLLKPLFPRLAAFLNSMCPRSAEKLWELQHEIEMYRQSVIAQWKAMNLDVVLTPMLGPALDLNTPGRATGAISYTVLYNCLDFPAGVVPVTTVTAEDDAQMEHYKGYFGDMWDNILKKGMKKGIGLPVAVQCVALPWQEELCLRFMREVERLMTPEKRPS
Assay: FAAH Inhibition Study: prodrug alone or after FAAH inhibitor PF-3845 in mice
Conditions: FIG. 12, in vivo
Experimental: Two cohorts of three mice were injected once intraperitoneally (i.p.) with prodrug at 9.14 μmol/kg. One cohort was injected 1 h prior to prodrug administration with a 1 mg/kg dose of FAAH inhibitor PF-3845. Euthanasia was performed on each cohort 1 h after injection with the prodrug and the tissues and blood were harvested. Tissues were immediately frozen and blood was kept on ice for a minimum of 30 min and then spun down at 7500×g for 15 min. Serum ([…]) was collected and was stored with tissues at −80° C. until samples were processed. Samples were processed as described above.
All parent drugs and d6-sobetirome internal standard were analyzed using a QTRAP 4000 hybrid/triple quadrupole linear ion trap mass spectrometer (Applied biosystems) with electrospray ionization (ESI) in negative mode. The mass spectrometer was interfaced to a Shimadzu (Columbia, Md.) SIL-20AC XR auto-sampler followed by 2 LC-20AD XR LC pumps and analysis on an Applied Biosystems/SCIEX QTRAP 4000 instrument (Foster City, Calif.). […] Data were acquired using SCIEX Analyst 1.6.2 software (Framingham, Mass., USA) and analyzed using Multiquant 3.0.2
Statistical analyses were performed using the two-tailed Student t test comparing individual groups with the appropriate vehicle group or as noted. […] AUC values were calculated and data was plotted and analyzed using GraphPad Prism 7. […]

In vivo validation as substrate for the FAAH enzyme: substrate for the FAAH enzyme
SMILES: CNC(=O)COc1cc(C)c(Cc2cc(C#Cc3ccc([N+](=O)[O-])cc3)c(O)c(C(C)C)c2)c(C)c1 [NRMA-2, 2-(4-(4-hydroxy-3-isopropyl-5-((4-nitrophenyl)ethynyl)benzyl)-3,5-dimethylphenoxy)-N-methylacetamide]
